Data on eleven molecules can be found in ChEMBL document CHEMBL6121054, “Discovery of Metabolic Reprogramming 2-Quinolones as Effective Antimicrobials for MRSA-Infected Wound Therapy” (J Med Chem, 2025).

Values after ≈ are worked out from the molar mass of the structure shown. Some results are limits rather than exact numbers.

Holding throughout (assay type): functional
For assay [1], the system named is Staphylococcus aureus. Put plainly: Antibacterial activity against Staphylococcus aureus USA300 incubated for 16 to 24 hrs by broth microdilution method. To be noted: time 16-24 hrs.
For assay [2], the system named is Staphylococcus aureus. Put plainly: Antibacterial activity against Staphylococcus aureus USA400 incubated for 16 to 24 hrs by broth microdilution method. To be noted: time 16-24 hrs.
Assay [3] concerns Staphylococcus aureus. Description: Antibacterial activity against Staphylococcus aureus DU1090 incubated for 16 to 24 hrs by broth microdilution method. To be noted: time 16-24 hrs.
Assay [4] deals with Staphylococcus aureus. Description: Antibacterial activity against Staphylococcus aureus NCTC 8325-4 incubated for 16 to 24 hrs by broth microdilution method. To be noted: time 16-24 hrs.
The test system of assay [5] is Staphylococcus aureus. Put plainly: Antibacterial activity against Staphylococcus aureus ATCC 25923 incubated for 16 to 24 hrs by broth microdilution method. To be noted: time 16-24 hrs.
Assay [6] relates to Staphylococcus aureus. Description: Antibacterial activity against Staphylococcus aureus ATCC 25904 incubated for 16 to 24 hrs by broth microdilution method. To be noted: time 16-24 hrs.
In assay [7] the test system is Staphylococcus aureus. Description: Antibacterial activity against Staphylococcus aureus ATCC 29213 incubated for 16 to 24 hrs by broth microdilution method. To be noted: time 16-24 hrs.
The test system of assay [8] is Listeria monocytogenes. Put plainly: Antibacterial activity against Listeria monocytogenes ATCC 19115 incubated for 16 to 24 hrs by broth microdilution method. To be noted: time 16-24 hrs.
The subject of assay [9] is Staphylococcus aureus. Put plainly: Antibacterial activity against methicillin-resistant Staphylococcus aureus MRSA 2 incubated for 16 to 24 hrs by broth microdilution method. To be noted: time 16-24 hrs.
Assay [10] deals with Streptococcus suis. Put plainly: Antibacterial activity against Streptococcus suis ZY05719 incubated for 16 to 24 hrs by broth microdilution method. To be noted: time 16-24 hrs.
In assay [11] the test system is Staphylococcus aureus. Put plainly: Antibacterial activity against methicillin-resistant Staphylococcus aureus MRSA 1 incubated for 16 to 24 hrs by broth microdilution method.
Assay [12] concerns Staphylococcus aureus. Put plainly: Induction of resistance development in Staphylococcus aureus USA300 assessed as fold increase in MIC incubated for 24 hrs measured after 14 passages by broth microdilution method.
The subject of assay [13] is Listeria monocytogenes. Put plainly: Antibacterial activity against Listeria monocytogenes EGD incubated for 16 to 24 hrs by broth microdilution method. To be noted: time 16-24 hrs.
Setting [14] is: Staphylococcus aureus, MRSA 1, time 16-24 hrs, read-out: MIC.

With `CN(C)c1cc(NC(=O)CNC(C)(C)C)c(O)c2c1C[C@H]1C[C@H]3[C@H](N(C)C)C(O)=C(C(N)=O)C(=O)[C@@]3(O)C(O)=C1C2=O` [TIGECYCLINE], the MIC in [1] is 0.16 µg/mL (≈ 0.273 µM); in assay [2] it was 0.19 µg/mL (≈ 0.324 µM); in assay [3], 0.23 µg/mL (≈ 0.393 µM); in assay [4], 0.27 µg/mL (≈ 0.461 µM); in [5], 0.92 µg/mL (≈ 1.57 µM); in [6], 0.83 µg/mL (≈ 1.42 µM). Moreover, the MIC in [7] is 0.1 µg/mL (≈ 0.171 µM); in [8], 0.2 µg/mL (≈ 0.341 µM); in assay [9] it was 0.54 µg/mL (≈ 0.922 µM); in [10] it was 0.07 µg/mL (≈ 0.12 µM).
With `CN[C@H](CC(C)C)C(=O)N[C@H]1C(=O)N[C@@H](CC(N)=O)C(=O)N[C@H]2C(=O)N[C@H]3C(=O)N[C@H](C(=O)N[C@H](C(=O)O)c4cc(O)cc(O)c4-c4cc3ccc4O)[C@H](O)c3ccc(c(Cl)c3)Oc3cc2cc(c3O[C@@H]2O[C@H](CO)[C@@H](O)[C@H](O)[C@H]2O[C@H]2C[C@](C)(N)[C@H](O)[C@H](C)O2)Oc2ccc(cc2Cl)[C@H]1O` [VANCOMYCIN], the minimum inhibitory concentration (MIC) came to 2.33 µg/mL (≈ 1.61 µM) in [1]; 2.5 µg/mL (≈ 1.73 µM) in [2]; 1.67 µg/mL (≈ 1.15 µM) in assay [3]; 1.83 µg/mL (≈ 1.26 µM) in assay [4]; 2.67 µg/mL (≈ 1.84 µM) in assay [5]; 3 µg/mL (≈ 2.07 µM) in [6]. For the same molecule, the minimal inhibitory concentration (MIC) in assay [7] was 1.71 µg/mL (≈ 1.18 µM); in [8] it was 1.83 µg/mL (≈ 1.26 µM); in assay [11] (setting [14]), 2.33 µg/mL (≈ 1.61 µM); in assay [11] (time 16-24 hrs), 1.33 µg/mL (≈ 0.918 µM); in assay [9], 1.33 µg/mL (≈ 0.918 µM); in assay [10], 0.15 µg/mL (≈ 0.104 µM). Also, the “fold change (FC)” value in [12] is listed as 16.
In the case of `CC1(C)S[C@H]([C@H](NC(=O)Cc2ccccc2)C(=O)NCc2ccccc2)N[C@H]1C(=O)N[C@H](Cc1ccccc1)[C@H](O)CC(=O)NCc1nc2ccccc2[nH]1`, the MIC in assay [1], in [2], in assay [3], in assay [4], in assay [5] and in assay [6] was 0.63 µg/mL (≈ 0.827 µM) throughout. The MIC in assay [7], in assay [13] and in [8] was 0.63 µg/mL (≈ 0.827 µM) each time.
`CNC(C)[C@@H]1CC[C@@H](N)[C@@H](O[C@H]2[C@H](O)[C@@H](O[C@H]3OC[C@](C)(O)[C@H](NC)[C@H]3O)[C@H](N)C[C@@H]2N)O1.CN[C@@H]1[C@@H](O)[C@@H](O[C@@H]2[C@@H](O)[C@H](O[C@H]3O[C@H](C(C)N)CC[C@H]3N)[C@@H](N)C[C@H]2N)OC[C@]1(C)O.CN[C@@H]1[C@@H](O)[C@@H](O[C@@H]2[C@@H](O)[C@H](O[C@H]3O[C@H](CN)CC[C@H]3N)[C@@H](N)C[C@H]2N)OC[C@]1(C)O` (some centres not stated): the MIC in assay [1] is 4 µg/mL; in assay [2] it was 3.67 µg/mL; in assay [3], 1.54 µg/mL; in assay [4], 5.33 µg/mL; in [5], 2.67 µg/mL; in assay [6], above 4 µg/mL. For the same molecule, the MIC in assay [7] was 3 µg/mL; in assay [8], 6 µg/mL; in assay [11] (setting [14]), above 4 µg/mL; in assay [11] (time 16-24 hrs), 5.33 µg/mL; in assay [9], above 4 µg/mL; in [10], 6 µg/mL.
Regarding `CCn1c(=O)c(C(=O)Nc2nnc(-c3ncccc3C)s2)c(O)c2ccccc21`, the MIC in assay [1], in assay [2], in assay [3], in assay [4], in assay [5] and in assay [6] was above 8 µg/mL throughout. The MIC in [7], in assay [13] and in assay [8] was above 8 µg/mL in each case.
In the case of `CCn1c(=O)c(C(=O)Nc2nnc(-c3ncccc3F)s2)c(O)c2ccccc21`, the MIC in assay [1] was 0.11 µg/mL (≈ 0.267 µM); in assay [2] it was 0.17 µg/mL (≈ 0.413 µM); in assay [3] it was 0.1 µg/mL (≈ 0.243 µM); in assay [4] it was 0.1 µg/mL (≈ 0.243 µM); in assay [5], 0.15 µg/mL (≈ 0.365 µM); in assay [6], 0.08 µg/mL (≈ 0.194 µM). The figures for the MIC in assay [7], in [13] and in assay [8] were 0.14 µg/mL (≈ 0.34 µM), 0.17 µg/mL (≈ 0.413 µM) and 0.2 µg/mL (≈ 0.486 µM), respectively.
On to `CCn1c(=O)c(C(=O)Nc2nnc(-c3cccc(C)n3)s2)c(O)c2ccccc21`, for which the MIC came out at 0.17 µg/mL (≈ 0.417 µM) in assay [1]; 0.08 µg/mL (≈ 0.196 µM) in assay [2]; 0.02 µg/mL (≈ 0.0491 µM) in assay [3]; 0.05 µg/mL (≈ 0.123 µM) in [4]; 0.04 µg/mL (≈ 0.0982 µM) in assay [5]; 0.04 µg/mL (≈ 0.0982 µM) in assay [6]. Also, the MIC in assay [7] is 0.2 µg/mL (≈ 0.491 µM); in [13], 0.02 µg/mL (≈ 0.0491 µM); in assay [8] it was 0.02 µg/mL (≈ 0.0491 µM).
Regarding `CCn1c(=O)c(C(=O)Nc2nnc(-c3ccc(F)cn3)s2)c(O)c2ccccc21`, the MIC in [1] was 0.46 µg/mL (≈ 1.12 µM); in assay [2], 1.29 µg/mL (≈ 3.14 µM); in assay [3], 0.5 µg/mL (≈ 1.22 µM); in assay [4], 1.25 µg/mL (≈ 3.04 µM); in [5], 0.46 µg/mL (≈ 1.12 µM); in assay [6] it was 0.48 µg/mL (≈ 1.17 µM). Moreover, the MIC in assay [7] came out at 0.67 µg/mL (≈ 1.63 µM); in [13], 0.49 µg/mL (≈ 1.19 µM); in assay [8] it was 0.5 µg/mL (≈ 1.22 µM).
For `CCn1c(=O)c(C(=O)Nc2nnc(-c3cc(C)ccn3)s2)c(O)c2ccccc21`, the MIC in assay [1] came out at 0.14 µg/mL (≈ 0.344 µM); in assay [2], 0.14 µg/mL (≈ 0.344 µM); in [3], 0.12 µg/mL (≈ 0.295 µM); in [4], 0.1 µg/mL (≈ 0.245 µM); in assay [5] it was 0.15 µg/mL (≈ 0.368 µM); in [6], 0.19 µg/mL (≈ 0.466 µM). For the same molecule, the MIC in assay [7] is 0.18 µg/mL (≈ 0.442 µM); in [13] it was 0.16 µg/mL (≈ 0.393 µM); in assay [8] it was 0.49 µg/mL (≈ 1.2 µM).
For `CCn1c(=O)c(C(=O)Nc2nnc(-c3ccc(Br)cn3)s2)c(O)c2ccccc21`, the MIC in [1] amounted to 0.06 µg/mL (≈ 0.127 µM); in assay [2], 0.07 µg/mL (≈ 0.148 µM); in assay [3], 0.05 µg/mL (≈ 0.106 µM); in [4], 0.27 µg/mL (≈ 0.572 µM); in assay [5] it was 0.2 µg/mL (≈ 0.423 µM); in assay [6] it was 0.19 µg/mL (≈ 0.402 µM). Further, the MIC in assay [7] came out at 1.13 µg/mL (≈ 2.39 µM); in [13], 0.06 µg/mL (≈ 0.127 µM); in assay [8], 0.05 µg/mL (≈ 0.106 µM).
Consider `CCn1c(=O)c(C(=O)Nc2nnc(-c3ccc(C(F)(F)F)cn3)s2)c(O)c2ccccc21`, for which the MIC in assay [1] was 4.67 µg/mL (≈ 10.1 µM); in [2], 6.67 µg/mL (≈ 14.5 µM); in [3], 0.96 µg/mL (≈ 2.08 µM); in assay [4], above 8 µg/mL; in assay [5], 5.33 µg/mL (≈ 11.6 µM); in assay [6], 3.42 µg/mL (≈ 7.41 µM). For the same molecule, the MIC is above 8 µg/mL in assay [7], 0.21 µg/mL (≈ 0.455 µM) in assay [13] and 0.29 µg/mL (≈ 0.628 µM) in [8].
